The target of assay [1] is T1, Serine/threonine-protein kinase DCLK2 (Homo sapiens) (UniProt Q8N568).
T1 sequence (whole entry): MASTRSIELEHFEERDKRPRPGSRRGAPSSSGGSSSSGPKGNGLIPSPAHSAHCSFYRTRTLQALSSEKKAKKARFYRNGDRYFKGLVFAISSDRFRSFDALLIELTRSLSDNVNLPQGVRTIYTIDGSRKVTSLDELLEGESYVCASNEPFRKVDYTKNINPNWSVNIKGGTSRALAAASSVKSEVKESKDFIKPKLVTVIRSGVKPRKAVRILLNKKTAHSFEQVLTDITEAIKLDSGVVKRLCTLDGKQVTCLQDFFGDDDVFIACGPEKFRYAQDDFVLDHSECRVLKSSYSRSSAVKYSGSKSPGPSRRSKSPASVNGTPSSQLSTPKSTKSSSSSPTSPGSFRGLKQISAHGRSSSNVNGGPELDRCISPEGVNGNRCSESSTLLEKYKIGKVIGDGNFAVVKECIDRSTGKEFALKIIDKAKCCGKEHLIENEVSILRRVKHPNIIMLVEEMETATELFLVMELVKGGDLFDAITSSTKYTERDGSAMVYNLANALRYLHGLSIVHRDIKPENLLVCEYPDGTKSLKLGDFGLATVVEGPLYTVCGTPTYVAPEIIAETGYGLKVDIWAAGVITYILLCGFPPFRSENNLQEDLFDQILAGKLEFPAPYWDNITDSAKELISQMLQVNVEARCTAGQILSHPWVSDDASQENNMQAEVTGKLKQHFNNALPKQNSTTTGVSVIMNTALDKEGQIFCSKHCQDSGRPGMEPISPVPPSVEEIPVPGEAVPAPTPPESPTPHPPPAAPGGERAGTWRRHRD
In words: Inhibition of human full length DCAMKL2 expressed in baculovirus assessed as substrate phosphorylation using fluorescence-labelled peptides as substrate at 8 uM after 90 mins by microfluidic peptide phosphorylation assay.

The target in assay [2] is Calcium/calmodulin-dependent protein kinase type II subunit delta (Homo sapiens) (UniProt Q13557). In words: Inhibition of human full length CAMK2D expressed in baculovirus assessed as substrate phosphorylation using fluorescence-labelled peptides as substrate at 420 uM after 90 mins by microfluidic peptide phosphorylation assay.
Assay [3] has as its target Ribosomal protein S6 kinase alpha-2 (Homo sapiens) (UniProt Q15349). Kind of assay: Inhibition of human full length RSK3 expressed in baculovirus assessed as substrate phosphorylation using fluorescence-labelled peptides as substrate at 420 uM after 90 mins by microfluidic peptide phosphorylation assay.
In assay [4] the target is Protein kinase C beta type (Homo sapiens) (UniProt P05771). In words: Inhibition of human full length PKC beta2 expressed in baculovirus assessed as substrate phosphorylation using fluorescence-labelled peptides as substrate at 420 uM after 90 mins by microfluidic peptide phosphorylation assay.
Assay [5] deals with Tyrosine-protein kinase Fyn (Homo sapiens) (UniProt P06241). As to conditions: 0.1 uM.
Description: Inhibition of human full length FYN expressed in baculovirus assessed as substrate phosphorylation using fluorescence-labelled peptides as substrate at 0.1 uM after 90 mins by microfluidic peptide phosphorylation assay
In assay [6] the target is Aurora kinase B (Homo sapiens) (UniProt Q96GD4). Kind of assay: Inhibition of human full length AurB expressed in baculovirus assessed as substrate phosphorylation using fluorescence-labelled peptides as substrate at 0.06 uM after 90 mins by microfluidic peptide phosphorylation assay.
For assay [7], the target named is Glycogen synthase kinase-3 beta (Homo sapiens) (UniProt P49841). Kind of assay: Inhibition of human full length GSK-3 beta expressed in baculovirus assessed as substrate phosphorylation using fluorescence-labelled peptides as substrate at 9 uM after 90 mins by microfluidic peptide phosphorylation assay.
Assay [8] deals with Rho-associated protein kinase 2 (Homo sapiens) (UniProt O75116). In words: Inhibition of human ROCK2 catalytic domain expressed in baculovirus assessed as substrate phosphorylation using fluorescence-labelled peptides as substrate at 9 uM after 90 mins by microfluidic peptide phosphorylation assay.
For assay [9], the target named is Calcium/calmodulin-dependent protein kinase type II subunit delta (Homo sapiens) (UniProt Q13557). Kind of assay: Inhibition of human full length CAMK2D expressed in baculovirus assessed as substrate phosphorylation using fluorescence-labelled peptides as substrate at 2 uM after 90 mins by microfluidic peptide phosphorylation assay.
Assay [10] deals with Protein kinase C eta type (Homo sapiens) (UniProt P24723). Kind of assay: Inhibition of human truncated PKC eta expressed in baculovirus assessed as substrate phosphorylation using fluorescence-labelled peptides as substrate at 2 uM after 90 mins by microfluidic peptide phosphorylation assay.
Assay [11] deals with Protein kinase C alpha type (Homo sapiens) (UniProt P17252). In words: Inhibition of human truncated PKC alpha expressed in baculovirus assessed as substrate phosphorylation using fluorescence-labelled peptides as substrate at 1000 uM after 90 mins by microfluidic peptide phosphorylation assay.
Assay [12] concerns the target T2, Serine/threonine-protein kinase Sgk1 (Homo sapiens) (UniProt O00141).
T2 sequence (whole entry): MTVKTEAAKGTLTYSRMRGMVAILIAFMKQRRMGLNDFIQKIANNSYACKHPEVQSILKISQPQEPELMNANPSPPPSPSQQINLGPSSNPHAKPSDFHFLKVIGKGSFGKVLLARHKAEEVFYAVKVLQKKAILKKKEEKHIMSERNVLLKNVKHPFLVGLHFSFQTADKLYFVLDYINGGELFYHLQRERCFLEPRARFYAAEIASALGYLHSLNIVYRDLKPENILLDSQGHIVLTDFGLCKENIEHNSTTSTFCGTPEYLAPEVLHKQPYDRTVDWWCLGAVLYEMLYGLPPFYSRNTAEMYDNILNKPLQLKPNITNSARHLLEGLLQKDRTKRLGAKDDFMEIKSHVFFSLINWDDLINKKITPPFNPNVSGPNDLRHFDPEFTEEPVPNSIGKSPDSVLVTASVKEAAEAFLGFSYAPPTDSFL
In words: Inhibition of human truncated SGK1 expressed in baculovirus assessed as substrate phosphorylation using fluorescence-labelled peptides as substrate at 1000 uM after 90 mins by microfluidic peptide phosphorylation assay.

The target in assay [13] is Tyrosine-protein kinase Lck (Homo sapiens) (UniProt P06239). Kind of assay: Inhibition of human full length LCK expressed in baculovirus assessed as substrate phosphorylation using fluorescence-labelled peptides as substrate at 1000 uM after 90 mins by microfluidic peptide phosphorylation assay.

Molecules are shown by their SMILES.

In general, inhibition refers to the share of the control response that was lost under treatment.

Sequence of Calcium/calmodulin-dependent protein kinase type II subunit delta (Homo sapiens) (Q13557 whole entry, the tested form may be a part): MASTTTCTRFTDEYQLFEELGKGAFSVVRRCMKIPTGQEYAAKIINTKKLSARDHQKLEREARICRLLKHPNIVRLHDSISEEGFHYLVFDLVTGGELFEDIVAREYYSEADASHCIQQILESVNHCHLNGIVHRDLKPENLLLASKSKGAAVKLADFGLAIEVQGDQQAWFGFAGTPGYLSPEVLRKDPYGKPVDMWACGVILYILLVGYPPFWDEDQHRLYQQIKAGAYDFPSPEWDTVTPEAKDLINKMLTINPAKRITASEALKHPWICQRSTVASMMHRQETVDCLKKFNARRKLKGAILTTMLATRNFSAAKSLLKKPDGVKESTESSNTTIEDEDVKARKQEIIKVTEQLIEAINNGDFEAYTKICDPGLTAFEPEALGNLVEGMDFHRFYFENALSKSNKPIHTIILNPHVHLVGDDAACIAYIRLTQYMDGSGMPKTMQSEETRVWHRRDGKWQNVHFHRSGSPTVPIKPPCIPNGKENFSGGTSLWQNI
Sequence of Ribosomal protein S6 kinase alpha-2 (Homo sapiens) (Q15349 whole entry): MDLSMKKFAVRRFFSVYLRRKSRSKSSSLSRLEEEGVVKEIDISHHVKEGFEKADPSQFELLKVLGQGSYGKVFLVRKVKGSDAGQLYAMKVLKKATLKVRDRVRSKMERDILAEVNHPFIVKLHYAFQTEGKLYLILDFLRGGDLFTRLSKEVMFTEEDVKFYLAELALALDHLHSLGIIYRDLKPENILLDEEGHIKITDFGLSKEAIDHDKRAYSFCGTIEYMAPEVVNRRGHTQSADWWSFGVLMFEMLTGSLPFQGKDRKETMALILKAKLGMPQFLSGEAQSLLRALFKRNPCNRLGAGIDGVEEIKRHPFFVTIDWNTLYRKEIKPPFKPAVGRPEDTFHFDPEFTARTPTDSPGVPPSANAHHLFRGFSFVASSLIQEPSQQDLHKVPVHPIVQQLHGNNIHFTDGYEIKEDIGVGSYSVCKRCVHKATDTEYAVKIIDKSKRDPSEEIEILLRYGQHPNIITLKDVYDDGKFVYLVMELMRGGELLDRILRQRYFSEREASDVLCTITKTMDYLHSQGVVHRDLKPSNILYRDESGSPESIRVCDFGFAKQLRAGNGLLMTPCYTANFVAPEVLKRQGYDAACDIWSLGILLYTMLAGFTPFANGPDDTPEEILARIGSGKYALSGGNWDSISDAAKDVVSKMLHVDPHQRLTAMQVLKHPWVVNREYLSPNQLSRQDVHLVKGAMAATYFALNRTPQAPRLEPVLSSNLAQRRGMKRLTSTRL
Sequence of Protein kinase C eta type (Homo sapiens) (P24723 whole entry, the tested form may be a part): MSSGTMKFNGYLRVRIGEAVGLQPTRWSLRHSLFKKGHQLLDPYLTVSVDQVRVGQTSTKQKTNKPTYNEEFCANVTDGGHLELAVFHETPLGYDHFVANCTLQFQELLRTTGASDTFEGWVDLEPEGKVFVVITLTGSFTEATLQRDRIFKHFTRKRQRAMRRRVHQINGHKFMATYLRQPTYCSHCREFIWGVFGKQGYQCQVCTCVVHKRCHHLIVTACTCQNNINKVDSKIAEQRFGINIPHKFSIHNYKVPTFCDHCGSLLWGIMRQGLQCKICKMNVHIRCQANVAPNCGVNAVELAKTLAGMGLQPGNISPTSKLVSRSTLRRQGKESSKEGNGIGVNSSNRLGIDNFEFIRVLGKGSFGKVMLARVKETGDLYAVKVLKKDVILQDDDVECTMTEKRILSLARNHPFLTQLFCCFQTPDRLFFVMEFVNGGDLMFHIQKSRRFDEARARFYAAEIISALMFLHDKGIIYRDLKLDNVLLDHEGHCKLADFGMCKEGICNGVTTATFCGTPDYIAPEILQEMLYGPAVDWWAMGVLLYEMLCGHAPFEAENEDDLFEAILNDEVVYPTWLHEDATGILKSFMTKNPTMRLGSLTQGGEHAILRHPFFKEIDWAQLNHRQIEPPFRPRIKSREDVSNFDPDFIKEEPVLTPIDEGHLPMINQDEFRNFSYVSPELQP
Sequence of Tyrosine-protein kinase Fyn (Homo sapiens) (P06241 2-537 limits assumed): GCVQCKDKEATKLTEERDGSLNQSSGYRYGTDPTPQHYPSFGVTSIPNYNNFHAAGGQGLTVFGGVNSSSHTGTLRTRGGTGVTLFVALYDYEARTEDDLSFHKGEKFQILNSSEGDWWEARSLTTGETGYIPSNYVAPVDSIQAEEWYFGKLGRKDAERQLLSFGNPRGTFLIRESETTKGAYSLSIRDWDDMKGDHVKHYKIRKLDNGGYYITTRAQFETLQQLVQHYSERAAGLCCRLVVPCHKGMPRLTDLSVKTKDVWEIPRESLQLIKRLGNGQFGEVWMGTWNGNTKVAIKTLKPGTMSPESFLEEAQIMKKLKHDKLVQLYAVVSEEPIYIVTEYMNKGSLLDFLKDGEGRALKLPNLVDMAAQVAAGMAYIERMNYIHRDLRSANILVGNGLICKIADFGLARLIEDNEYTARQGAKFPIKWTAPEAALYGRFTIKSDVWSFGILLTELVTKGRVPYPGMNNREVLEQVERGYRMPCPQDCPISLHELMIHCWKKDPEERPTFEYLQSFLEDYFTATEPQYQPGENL
Sequence of Rho-associated protein kinase 2 (Homo sapiens) (O75116 whole entry, looked up, the tested form may be a part): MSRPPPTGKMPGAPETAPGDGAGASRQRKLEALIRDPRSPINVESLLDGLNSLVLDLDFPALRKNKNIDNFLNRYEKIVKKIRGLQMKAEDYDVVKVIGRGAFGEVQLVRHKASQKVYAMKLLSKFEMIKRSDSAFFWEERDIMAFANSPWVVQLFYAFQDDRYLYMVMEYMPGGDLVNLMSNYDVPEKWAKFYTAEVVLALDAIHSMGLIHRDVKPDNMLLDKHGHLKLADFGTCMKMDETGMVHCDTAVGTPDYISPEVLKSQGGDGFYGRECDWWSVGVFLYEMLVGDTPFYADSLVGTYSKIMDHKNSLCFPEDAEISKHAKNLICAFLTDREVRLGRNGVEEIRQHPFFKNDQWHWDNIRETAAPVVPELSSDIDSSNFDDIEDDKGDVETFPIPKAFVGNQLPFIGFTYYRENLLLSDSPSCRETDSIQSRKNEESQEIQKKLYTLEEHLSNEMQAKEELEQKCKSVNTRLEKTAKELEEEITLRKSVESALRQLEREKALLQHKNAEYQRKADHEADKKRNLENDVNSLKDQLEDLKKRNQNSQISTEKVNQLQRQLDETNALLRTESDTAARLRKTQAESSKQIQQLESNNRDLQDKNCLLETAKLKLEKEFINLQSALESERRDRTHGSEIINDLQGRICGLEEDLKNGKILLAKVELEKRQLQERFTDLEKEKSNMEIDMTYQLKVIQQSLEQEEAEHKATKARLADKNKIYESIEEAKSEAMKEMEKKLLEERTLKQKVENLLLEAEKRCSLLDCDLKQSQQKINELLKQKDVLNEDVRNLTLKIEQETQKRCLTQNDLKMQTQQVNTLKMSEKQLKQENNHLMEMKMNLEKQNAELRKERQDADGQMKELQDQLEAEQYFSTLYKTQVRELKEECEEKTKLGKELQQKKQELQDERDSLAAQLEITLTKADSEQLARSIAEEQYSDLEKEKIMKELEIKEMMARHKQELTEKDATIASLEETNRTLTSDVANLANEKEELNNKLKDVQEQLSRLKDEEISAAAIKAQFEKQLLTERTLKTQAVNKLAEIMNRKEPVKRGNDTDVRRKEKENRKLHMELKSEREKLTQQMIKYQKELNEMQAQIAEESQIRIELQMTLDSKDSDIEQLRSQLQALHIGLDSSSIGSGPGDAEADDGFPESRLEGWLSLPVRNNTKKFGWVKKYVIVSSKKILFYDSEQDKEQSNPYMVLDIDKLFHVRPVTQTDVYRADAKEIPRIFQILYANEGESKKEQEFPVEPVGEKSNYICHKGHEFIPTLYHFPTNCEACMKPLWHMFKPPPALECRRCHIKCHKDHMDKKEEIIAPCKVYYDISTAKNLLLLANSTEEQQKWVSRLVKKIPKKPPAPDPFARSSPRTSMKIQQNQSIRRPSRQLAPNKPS
Sequence of Glycogen synthase kinase-3 beta (Homo sapiens) (P49841 whole entry, looked up, the tested form may be a part): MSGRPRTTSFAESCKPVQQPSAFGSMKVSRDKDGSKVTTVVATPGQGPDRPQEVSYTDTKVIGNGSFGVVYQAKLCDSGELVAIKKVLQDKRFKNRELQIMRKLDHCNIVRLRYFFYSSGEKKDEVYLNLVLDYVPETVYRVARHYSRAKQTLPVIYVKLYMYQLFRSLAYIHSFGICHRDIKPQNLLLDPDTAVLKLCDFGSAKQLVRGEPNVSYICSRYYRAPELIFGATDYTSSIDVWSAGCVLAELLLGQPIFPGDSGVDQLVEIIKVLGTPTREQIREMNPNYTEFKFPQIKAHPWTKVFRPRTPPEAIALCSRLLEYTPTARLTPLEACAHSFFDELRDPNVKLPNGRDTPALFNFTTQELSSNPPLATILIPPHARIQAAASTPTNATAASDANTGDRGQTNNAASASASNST

For `NCC1CCN(c2ncnc3[nH]ccc23)CC1`, the inhibition in assay [1] stood at 21%. On to `c1nc(N2CCOCC2)c2nc[nH]c2n1`, for which the inhibition in assay [2] turned out to be 63.5%; in assay [3] it was 98%; in assay [4], 38%.

As for `C[C@H](CN(C)C)Oc1nc(Nc2cc3cccc(Cl)c3cn2)cnc1C#N`, the inhibition in assay [5] came to 0%. In the case of `NC1(Cc2ccc(Cl)cc2)CCN(c2ncnc3[nH]ccc23)CC1`, in assay [6], the inhibition came out at 0%.

With `NCC1CN(c2ncnc3[nH]c4cnccc4c23)CCO1` (stereo not drawn), the inhibition was determined as 94% in assay [7] and 53% in assay [8]. For the molecule `NC1CCN(c2ncnc3[nH]ccc23)CC1`, the inhibition came out at 8% in assay [9] and 56.5% in [10]. Consider `c1cnc2[nH]ccc2c1`, for which the inhibition in [11] came to 43%; in assay [12], 94%; in assay [13] it was 29%.

For the origin of these results see ChEMBL document CHEMBL3132769, “Fragment growing to retain or alter the selectivity of anchored kinase hinge-binding fragments” (Medchemcomm, 2014).
